Data taken from patent US11267812B2 (Mirati Therapeutics, Inc., priority 2016, dated 2022).
pIC50: −log10 of the molar value.

What follows are molecules tested on Phospho-ERK in NCI-H358 cells expressing KRas G12C (assay: Cellular inhibition of KRas G12C by Phospho-ERK measurement in NCI-H358 cells). Details: Homo sapiens, NCI-H358, 3 h, read-out: IC50 (pERK(Thr202/Tyr204) normalized with GAPDH).
Format: cell-based
Procedure: The cellular inhibition of KRAs G12C by exemplary compounds of the present invention was determined by measuring the amount of a downstream marker of KRas activity, phosphorylated ERK (“Phospho-ERK”).
NCI-H358 cells (ATCC CRL-5807) express KRas G12C and were grown in RPMI medium supplemented with 10% fetal bovine serum, penicillin/streptomycin and 10 mM HEPES. Cells were plated in poly-D-Lysine coated 96-well plates at a concentration of 50,000 cells/well and allowed to attach for 8-12 hours. Diluted compounds were then added at a final concentration of 0.5% DMSO. After 3 hours, the medium was removed, 150 μL of 4% formaldehyde was added and the plates were incubated for 20 minutes. The plates were washed with PBS, and permeabilized using 150 μL of ice cold 100% methanol for 10 minutes. Non-specific antibody binding to the plates was blocked using 100 μL Licor Blocking Buffer (Li-Cor Biotechnology, Lincoln Nebr.) for 1 hour at room temperature. Positive control samples and samples lacking cells were parallel processed with test samples as standards.
The amount Phospho-ERK was determined using an antibody specific for the phosphorylated form of ERK and compared to the amount of GAPDH. Primary antibodies used for detection were added as follows: Phospho-ERK (Cell Signaling cs9101) diluted 1:500 and GAPDH (Millipore MAB374) diluted 1:5000 in Licor block+0.05% Tween 20. The plates were incubated for 2 hours at room temperature. The plates were washed with PBS+0.05% Tween 20.
Secondary antibodies used to visualize primary antibodies were added as follows: Anti-rabbit-680 diluted 1:1000 and Anti-mouse-800 diluted 1:1000 in Licor Block+0.050 Tween 20 and incubated for 1 hour at room temperature. The plates were washed with PBS+0.05% o Tween 20. A100 L aliquot of PBS was added to each well and the plates were read on a LICOR AERIUS plate reader.
The pERK(Thr202/Tyr204) signal was normalized with the GAPDH signal and percent of DMSO control values were calculated. IC50 values were generated using a 4 parameter fit of the dose response curve. Key: “A”≥0.001-≤1 μM; “B”[…] and ND=not determined.

Structure (SMILES) | pIC50
C=CC(=O)N1CCN(c2nc(OC[C@@H]3CCCN3C)nc3c2CCN(c2cc(O)cc4ccccc24)C3)CC1 [Example 127, (S)-1-(4-(7-(3-hydroxynaphthalen-1-yl)-2-((1-methylpyrrolidin-2-yl)methoxy)-5,6,7,8-tetrahydropyrido[3,4-d]pyrimidin-4-yl)piperazin-1-yl)prop-2-en-1-one] | 6.00 to 9.00

Same assay, conditions: Homo sapiens; NCI-H358 cells, 3 hours compound treatment; read-out: IC50 (pERK(Thr202/Tyr204) normalized with GAPDH)

Structure (SMILES) | pIC50
C=CC(=O)N1CCN(c2nc(OC[C@@H]3CCCN3CC)nc3c2CCN(c2cc(O)cc4ccccc24)C3)CC1 [Example 197, (S)-1-(4-(2-((1-ethylpyrrolidin-2-yl)methoxy)-7-(3-hydroxynaphthalen-1-yl)-5,6,7,8-tetrahydropyrido[3,4-d]pyrimidin-4-yl)piperazin-1-yl)prop-2-en-1-one] | 6.00 to 9.00
C=CC(=O)N1CCN(c2nc(OC[C@H]3CCCN3C)nc3c2CCN(c2cc(O)cc4ccccc24)C3)CC1CC#N (stereo partly drawn) [Example 178, 2-[4-[7-(3-hydroxy-1-naphthyl)-2-[[(2R)-1-methylpyrrolidin-2-yl]methoxy]-6,8-dihydro-5H-pyrido[3,4-d]pyrimidin-4-yl]-1-prop-2-enoyl-piperazin-2-yl]acetonitrile] | 6.00 to 9.00
C=CC(=O)N1CCN(c2nc(O[C@H](C)CN(C)C)nc3c2CCN(c2cc(O)cc4ccccc24)C3)CC1 [Example 19, (R)-1-(4-(2-((1-(dimethylamino)propan-2-yl)oxy)-7-(3-hydroxynaphthalen-1-yl)-5,6,7,8-tetrahydropyrido[3,4-d]pyrimidin-4-yl)piperazin-1-yl)prop-2-en-1-one] | 6.00 to 9.00
C=CC(=O)N1CCN(c2nc(O[C@H](C)[C@H]3CCCN3C)nc3c2CCN(c2cc(O)cc4ccccc24)C3)CC1 [Example 129, 1-[4-[7-(3-hydroxy-1-naphthyl)-2-[(1R)-1-[(2R)-1-methylpyrrolidin-2-yl]ethoxy]-6,8-dihydro-5H-pyrido[3,4-d]pyrimidin-4-yl]piperazin-1-yl]prop-2-en-1-one] | 6.00 to 9.00
C=CC(=O)N1CCN(c2nc(OCCN3CCC(OC)CC3)nc3c2CCN(c2cc(O)cc4ccccc24)C3)CC1 [Example 108, 1-(4-(7-(3-hydroxynaphthalen-1-yl)-2-(2-(4-methoxypiperidin-1-yl)ethoxy)-5,6,7,8-tetrahydropyrido[3,4-d]pyrimidin-4-yl)piperazin-1-yl)prop-2-en-1-one] | 6.00 to 9.00
C=CC(=O)N1CCN(c2nc(OC[C@@H]3C[C@@H](OC)CN3C)nc3c2CCN(c2cccc4ccccc24)C3)CC1CC#N (stereo partly drawn) [Example 268, 2-(1-acryloyl-4-(2-(((2S,4R)-4-methoxy-1-methylpyrrolidin-2-yl)methoxy)-7-(naphthalen-1-yl)-5,6,7,8-tetrahydropyrido[3,4-d]pyrimidin-4-yl)piperazin-2-yl)acetonitrile] | 6.00 to 9.00
C=CC(=O)N1CCN(c2nc(O[C@H](C)CN(C)C)nc3c2CCN(c2cc(O)cc4ccccc24)C3)CC1CC#N (stereo partly drawn) [Example 150, 2-(1-acryloyl-4-(2-(((R)-1-(dimethylamino)propan-2-yl)oxy)-7-(3-hydroxynaphthalen-1-yl)-5,6,7,8-tetrahydropyrido[3,4-d]pyrimidin-4-yl)piperazin-2-yl)acetonitrile] | 6.00 to 9.00
C=CC(=O)N1CCN(c2nc(OC[C@@H]3CCCN3C)nc3c2CCN(c2ccccc2C(F)(F)F)C3)C[C@@H]1CC#N [Example 237, 2-((S)-1-acryloyl-4-(2-(((S)-1-methylpyrrolidin-2-yl)methoxy)-7-(2-(trifluoromethyl)phenyl)-5,6,7,8-tetrahydropyrido[3,4-d]pyrimidin-4-yl)piperazin-2-yl)acetonitrile 2,2,2-trifluoroacetate] | 6.00 to 9.00
C=CC(=O)N1CCN(c2nc(OCC3CCCN(C)C3)nc3c2CCN(c2cc(O)cc4ccccc24)C3)CC1 (stereo not shown) [Example 72, 1-(4-(7-(3-hydroxynaphthalen-1-yl)-2-((1-methylpiperidin-3-yl)methoxy)-5,6,7,8-tetrahydropyrido[3,4-d]pyrimidin-4-yl)piperazin-1-yl)prop-2-en-1-one] | 6.00 to 9.00
C=CC(=O)N1CCN(c2nc(OC[C@@H]3CCCN3CCOC)nc3c2CCN(c2cc(O)cc4ccccc24)C3)CC1 [Example 144, (S)-1-(4-(7-(3-hydroxynaphthalen-1-yl)-2-((1-(2-methoxyethyl)pyrrolidin-2-yl)methoxy)-5,6,7,8-tetrahydropyrido[3,4-d]pyrimidin-4-yl)piperazin-1-yl)prop-2-en-1-one] | 6.00 to 9.00
C=CC(=O)N1CCN(c2nc(OC(C)CCN(C)C)nc3c2CCN(c2cc(O)cc4ccccc24)C3)CC1 (stereo not shown) [Example 21, 1-(4-(2-((4-(dimethylamino)butan-2-yl)oxy)-7-(3-hydroxynaphthalen-1-yl)-5,6,7,8-tetrahydropyrido[3,4-d]pyrimidin-4-yl)piperazin-1-yl)prop-2-en-1-one] | 6.00 to 9.00
C=CC(=O)N1CCN(c2nc(OC[C@@H]3CCCN3C)nc3c2CCN(c2cccc(C)c2C(F)(F)F)C3)CC1CC#N (stereo partly drawn) [Example 265, 2-(1-acryloyl-4-(7-(3-methyl-2-(trifluoromethyl)phenyl)-2-(((S)-1-methylpyrrolidin-2-yl)methoxy)-5,6,7,8-tetrahydropyrido[3,4-d]pyrimidin-4-yl)piperazin-2-yl)acetonitrile] | 6.00 to 9.00
C/C=C/C(=O)N1CCN(c2nc(OC[C@@H]3CCCN3C)nc3c2CCN(c2cccc4ccccc24)C3)CC1CC#N (stereo partly drawn) [Example 263, 2-[1-[(E)-but-2-enoyl]-4-[2-[[(2S)-1-methylpyrrolidin-2-yl]methoxy]-7-(1-naphthyl)-6,8-dihydro-5H-pyrido[3,4-d]pyrimidin-4-yl]piperazin-2-yl]acetonitrile] | 6.00 to 9.00
C=CC(=O)N1CCN(c2nc(OC[C@@H]3CCCN(C)C3)nc3c2CCN(c2cc(O)cc4ccccc24)C3)CC1 [Example 192, (R)-1-(4-(7-(3-hydroxynaphthalen-1-yl)-2-((1-methylpiperidin-3-yl)methoxy)-5,6,7,8-tetrahydropyrido[3,4-d]pyrimidin-4-yl)piperazin-1-yl)prop-2-en-1-one] | 6.00 to 9.00
C=CC(=O)N1CCN(c2nc(O[C@H](C)CN3CCCC3)nc3c2CCN(c2cc(O)cc4ccccc24)C3)CC1 [Example 120, (R)-1-(4-(7-(3-hydroxynaphthalen-1-yl)-2-((1-(pyrrolidin-1-yl)propan-2-yl)oxy)-5,6,7,8-tetrahydropyrido[3,4-d]pyrimidin-4-yl)piperazin-1-yl)prop-2-en-1-one] | 6.00 to 9.00
C=CC(=O)N1CCN(c2nc(OCCN3CCCCC3)nc3c2CCN(c2cc(O)cc4ccccc24)C3)CC1 [Example 52, 1-[4-[7-(3-hydroxy-1-naphthyl)-2-[2-(1-piperidyl)ethoxy]-6,8-dihydro-5H-pyrido[3,4-d]pyrimidin-4-yl]piperazin-1-yl]prop-2-en-1-one] | 6.00 to 9.00
C=CC(=O)N1CCN(c2nc(OCCCN3C[C@@H]4C[C@H]3CO4)nc3c2CCN(c2cc(O)cc4ccccc24)C3)CC1CC#N (stereo partly drawn) [Example 153, 2-[4-[7-(3-hydroxy-1-naphthyl)-2-[3-[(1S,4S)-2-oxa-5-azabicyclo[2.2.1]heptan-5-yl]propoxy]-6,8-dihydro-5H-pyrido[3,4-d]pyrimidin-4-yl]-1-prop-2-enoyl-piperazin-2-yl]acetonitrile] | 6.00 to 9.00
C=CC(=O)N1CCN(c2nc(OC[C@@H]3CCCN3C)nc3c2CCN(c2ccccc2F)C3)CC1CC#N (stereo partly drawn) [Example 227, 2-(1-acryloyl-4-(7-(2-fluorophenyl)-2-(((S)-1-methylpyrrolidin-2-yl)methoxy)-5,6,7,8-tetrahydropyrido[3,4-d]pyrimidin-4-yl)piperazin-2-yl)acetonitrile] | 6.00 to 9.00
